Reference: patent US20230135894A1, “MK2 DEGRADERS AND USES THEREOF” (Kymera Therapeutics, Inc., priority 2021, published 2023)

Legend:
MK2 [1] = molecular target: T1, MK2 (Homo sapiens, UniProt P49137); assay: MK2 degradation in human THP-1 monocytic cells (MSD, 24 h); type: cell-based; design: endogenous in cells; conditions: for Dmax: THP-1, THP-1 cells; for DC50: THP-1 cells, read-out: MK2 MSD THP-1 degradation 24 h GMean External Abs DC50
Procedure, shortened: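 THP-1 cells (200,000/well) treated 24 h at 37 °C with compound dilution series (up to 10 points, 0.1% DMSO). MK2 in RIPA lysates quantified by MSD sandwich immunoassay. DC50 from 4-parameter logistic fit, DMSO-treated cells as high and lysis buffer as low signal.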

MK2 [2] = molecular target: T1, MK2; assay: MK2 degradation in human SW1353 cells (MSD, 24 h); type: cell-based; design: endogenous in cells; host or cells: SW-1353 (ATCC HTB-94); key to MK2 MSD SW1353 degradation 24 h GMean External Abs DC50: A (<0.001 μM); B (0.001-0.01 μM); C (0.01-0.1 μM); D (>0.1 μM); —: “-”=not tested or inactive; key to MK2 MSD SW 1353 24 h Dmax %: —: “-”=not tested or inactive; conditions: for Dmax: read-out: MK2 MSD SW 1353 24 h Dmax %; for DC50: read-out: MK2 MSD SW1353 degradation 24 h GMean External Abs DC50
Procedure, shortened: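 SW1353 chondrosarcoma cells were treated with up to 10-point serial dilutions (0.1% DMSO) for 24 h at 37 °C, then lysed in RIPA buffer. MK2 levels were quantified by MSD sandwich immunoassay; DC50 came from a 4-parameter logistic fit normalised to DMSO-treated cells (high) and lysis buffer (low).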

T1 sequence (P49137 whole entry): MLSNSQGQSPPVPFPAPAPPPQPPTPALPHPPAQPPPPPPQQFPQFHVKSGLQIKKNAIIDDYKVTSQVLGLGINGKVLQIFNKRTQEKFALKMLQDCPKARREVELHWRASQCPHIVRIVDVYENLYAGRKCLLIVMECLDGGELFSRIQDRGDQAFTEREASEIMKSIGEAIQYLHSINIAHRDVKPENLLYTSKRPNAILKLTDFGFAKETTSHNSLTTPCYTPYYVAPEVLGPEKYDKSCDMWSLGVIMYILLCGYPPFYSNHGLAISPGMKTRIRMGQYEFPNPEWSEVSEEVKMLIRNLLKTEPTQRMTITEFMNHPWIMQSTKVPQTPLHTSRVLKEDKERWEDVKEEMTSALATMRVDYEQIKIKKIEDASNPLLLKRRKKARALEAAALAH

Dmax (MK2 [1])	DC50 (MK2 [1])	Dmax (MK2 [2])	DC50 (MK2 [2])	MK2 MSD SW 1353 24 h Dmax % (MK2 [2])	MK2 MSD SW1353 degradation 24 h GMean External Abs DC50 (MK2 [2])	SMILES
> 75%	< 1 nM	> 75%	< 1 nM			COc1cc(-c2ccc3c(ccc4sc5c(c43)NC[C@@H](C)NC5=O)n2)cc(N2CCN(CC3CCN(c4ccc5c(c4)n(C)c(=O)n5C4CCC(=O)NC4=O)CC3)CC2)c1 (some centres unmarked) [Compound I-239]
50 to 75%	1 to 10 nM	> 75%	< 1 nM			C[C@@H]1CNc2c(sc3ccc4nc(N5CCC(N6CCC7(CC6)CN(c6ccc8c(c6)n(C)c(=O)n8C6CCC(=O)NC6=O)C7)CC5)ccc4c23)C(=O)N1 (some centres unmarked) [Compound I-402]
> 75%	< 1 nM	> 75%	10 to 100 nM			C[C@@H]1CNc2c(sc3ccc4nc(-c5cccc(N6CCC7(CC6)CN(CCCCCCc6cccc8c6n(C)c(=O)n8C6CCC(=O)NC6=O)C7)c5)ccc4c23)C(=O)N1 (some centres unmarked) [Compound I-293]
> 75%	1 to 10 nM	> 75%	1 to 10 nM			C[C@@H]1CNc2c(sc3ccc4nc(N5CCN(CC6CCN(c7ccc8c(c7)n(C)c(=O)n8C7CCC(=O)NC7=O)CC6)CC5)ccc4c23)C(=O)N1 (some centres unmarked) [Compound I-265]
> 75%	< 1 nM	> 75%	< 1 nM			COc1ccc2c(c1CCN1CCN(c3ccc(-c4cc(-c5cc6c([nH]5)C5(CC5)CNC6=O)ccn4)cc3)CC1)n(C)c(=O)n2C1CCC(=O)NC1=O (centres unmarked) [Compound I-430]
> 75%	< 1 nM	> 75%	< 1 nM			Cn1c(=O)n(C2CCC(=O)NC2=O)c2ccc(N3CC(CN4CCN(c5ccc(-c6nccc(-c7cc8c([nH]7)C7(CC7)CNC8=O)n6)cc5)CC4)C3)cc21 (centres unmarked) [Compound I-426]
50 to 75%	10 to 100 nM	> 75%	10 to 100 nM			C[C@@H]1CNc2c(sc3ccc4nc(-c5ccc(C#CCCNC(=O)CCCCCCCCCc6ccc7c(c6)n(C)c(=O)n7C6CCC(=O)NC6=O)cc5)ccc4c23)C(=O)N1 (some centres unmarked) [Compound I-53]
> 75%	< 1 nM	> 75%	< 1 nM			COc1ccc2c(c1N1CCN(CC3CCN(c4ccc(-c5ccc6c(ccc7sc8c(c76)NC[C@@H](C)NC8=O)n5)cn4)CC3)CC1)n(C)c(=O)n2C1CCC(=O)NC1=O (some centres unmarked) [Compound I-256]
50 to 75%	10 to 100 nM	> 75%	10 to 100 nM			O=C1CCN(c2cncc3c(N4CCC(CN5CCN(c6ccc(-c7cc(-c8cc9c([nH]8)CCNC9=O)ccn7)cc6)CC5)CC4)cccc23)C(=O)N1 [Compound I-210]
> 75%	< 1 nM	> 75%	1 to 10 nM			C[C@@H]1CNc2c(sc3ccc4nc(-c5cccc(N6CCN(CCCCCCCc7cccc8c7n(C)c(=O)n8C7CCC(=O)NC7=O)CC6)c5)ccc4c23)C(=O)N1 (some centres unmarked) [Compound I-95]
> 75%	1 to 10 nM	> 75%	< 1 nM			Cn1c(=O)n(C2CCC(=O)NC2=O)c2ccc(N3CCC(CN4CCN(c5ccc(-c6cc(-c7cc8c([nH]7)C7(CCCC7)CNC8=O)ccn6)c(F)c5)CC4)CC3)cc21 (centres unmarked) [Compound I-424]
> 75%	< 1 nM	> 75%	< 1 nM			C[C@@H]1CNc2c(sc3ccc4nc(N5CCN(CCC6CCN(c7ccc8c(c7)n(C)c(=O)n8C7CCC(=O)NC7=O)CC6)CC5)ccc4c23)C(=O)N1 (some centres unmarked) [Compound I-445]
> 75%	< 1 nM	> 75%	< 1 nM			Cn1c(=O)n(C2CCC(=O)NC2=O)c2ccc(N3CC(CN4CCN(c5ccc(-c6cc(-c7cc8c([nH]7)CCNC8=O)ccn6)c(F)c5)CC4)C3)cc21 (centres unmarked) [Compound I-423]
< 50%	> 100 nM	< 50%	> 100 nM			Cn1c(=O)n(C2CCC(=O)NC2=O)c2ccc(CCCN3CCN(c4cccc(-c5ccc(-c6cc7c([nH]6)CCNC7=O)cn5)c4)CC3)cc21 (centres unmarked) [Compound I-121]
> 75%	< 1 nM	> 75%	< 1 nM			Cc1nc(N2CCN(CC3CN(c4ccc5c(c4)n(C)c(=O)n5C4CCC(=O)NC4=O)C3)CC2)ccc1-c1ccc2c(ccc3sc4c(c32)NC[C@@H](C)NC4=O)n1 (some centres unmarked) [Compound I-234]
> 75%	1 to 10 nM	> 75%	1 to 10 nM			C[C@@H]1CNc2c(sc3ccc4nc(-c5cccc(N6CCC(CN7CCC(c8cccc9c(N%10CCC(=O)NC%10=O)cncc89)CC7)CC6)c5)ccc4c23)C(=O)N1 [Compound I-312]

Dmax (MK2 [1])	DC50 (MK2 [1])	Dmax (MK2 [2])	DC50 (MK2 [2])	MK2 MSD SW 1353 24 h Dmax % (MK2 [2])	MK2 MSD SW1353 degradation 24 h GMean External Abs DC50 (MK2 [2])	SMILES
> 75%	< 1 nM	> 75%	< 1 nM			C[C@@H]1CNc2c(sc3ccc4nc(-c5ccc(N6CCN(CC7CN(c8ccc9c(c8)n(C)c(=O)n9C8CCC(=O)NC8=O)C7)CC6)nc5)ccc4c23)C(=O)N1 (some centres unmarked) [Compound I-254]
> 75%	1 to 10 nM	> 75%	1 to 10 nM			C[C@@H]1Cc2[nH]c(-c3ccnc(-c4ccc(N5CCC(CN6CCC(c7cccc8c7n(C)c(=O)n8C7CCC(=O)NC7=O)CC6)CC5)cc4)c3)cc2C(=O)N1 (some centres unmarked) [Compound I-248]
> 75%	< 1 nM	> 75%	< 1 nM			Cn1c(=O)n(C2CCC(=O)NC2=O)c2ccc(N3CCC(CN4CCN(c5ccc(-c6cc(-c7cc8c([nH]7)CCNC8=O)ccn6)c(F)c5)CC4)CC3)cc21 (centres unmarked) [Compound I-226]
> 75%	1 to 10 nM	> 75%	1 to 10 nM			O=C1CCN(c2cncc3c(N4CC(CN5CCN(c6ccc(-c7cc(-c8cc9c([nH]8)C8(CC8)CNC9=O)ccn7)cc6)CC5)C4)cccc23)C(=O)N1 [Compound I-188]
> 75%	< 1 nM	> 75%	< 1 nM			Cn1c(=O)n(C2CCC(=O)NC2=O)c2ccc(N3CCC(CN4CCN(c5ccc(-c6cc(-c7cc8c([nH]7)CCNC8=O)ccn6)cn5)CC4)CC3)cc21 (centres unmarked) [Compound I-141]
< 50%	> 100 nM	< 50%	> 100 nM			C[C@@H]1CNc2c(sc3ccc4nc(-c5cc(N6CCN(CC7CCN(c8ccc9c(c8)n(C)c(=O)n9C8CCC(=O)NC8=O)CC7)CC6)nc(C(C)(C)O)c5)ccc4c23)C(=O)N1 (some centres unmarked) [Compound I-219]
> 75%	1 to 10 nM	> 75%	1 to 10 nM			C[C@@H]1CNc2c(sc3ccc4nc(-c5ccc(CNC(=O)CCCCCCCCCc6cccc7c6n(C)c(=O)n7C6CCC(=O)NC6=O)cc5)ccc4c23)C(=O)N1 (some centres unmarked) [Compound I-86]
> 75%	< 1 nM	> 75%	< 1 nM			C[C@@H]1CNc2c(sc3ccc4nc(-c5ccc(N6CCC(CCN7CCN(c8ccc9c(c8)n(C)c(=O)n9C8CCC(=O)NC8=O)CC7)CC6)cc5)ccc4c23)C(=O)N1 (some centres unmarked) [Compound I-131]
> 75%	< 1 nM	> 75%	1 to 10 nM			C[C@@H]1CNc2c(sc3ccc4nc(-c5cccc(N6CCN(CCCCCc7cccc8c7n(C)c(=O)n8C7CCC(=O)NC7=O)CC6)c5)ccc4c23)C(=O)N1 (some centres unmarked) [Compound I-94]
> 75%	< 1 nM	> 75%	< 1 nM			C[C@@H]1CNc2c(sc3ccc4nc(-c5ccc(N6CCN(CCCc7ccc8c(c7)n(C)c(=O)n8C7CCC(=O)NC7=O)CC6)cc5F)ccc4c23)C(=O)N1 (some centres unmarked) [Compound I-252]
> 75%	< 1 nM			—	—	Cn1c(=O)n(C2CCC(=O)NC2=O)c2ccc(N3CCC(CN4CCN(c5ccc(-c6cc(-c7cc8c([nH]7)C7(CCC7)CNC8=O)ccn6)cc5)CC4)CC3)cc21 (centres unmarked) [Compound I-205]
> 75%	< 1 nM	> 75%	< 1 nM			Cc1cc(N2CCC(CN3CCC(c4ccc5c(c4)n(C)c(=O)n5C4CCC(=O)NC4=O)CC3)CC2)ccc1-c1ccc2c(ccc3sc4c(c32)NC[C@@H](C)NC4=O)n1 (some centres unmarked) [Compound I-291]
> 75%	< 1 nM	> 75%	< 1 nM			C[C@@H]1CNc2c(sc3ccc4nc(-c5ccc(N6CCN(C[C@H]7CCN(c8ccc9c(c8)n(C)c(=O)n9C8CCC(=O)NC8=O)C7)CC6)cc5)ccc4c23)C(=O)N1 (some centres unmarked) [Compound I-195]
> 75%	< 1 nM	> 75%	< 1 nM			C[C@@H]1CNc2c(sc3ccc4nc(-c5ccc(N6CCN(CC7CN(c8cccc9c8n(C)c(=O)n9C8CCC(=O)NC8=O)C7)CC6)nc5)ccc4c23)C(=O)N1 (some centres unmarked) [Compound I-245]
50 to 75%	1 to 10 nM	> 75%	< 1 nM			C[C@@H]1CNc2c(sc3ccc4nc(-c5ccc(N6CCN(C[C@@H]7CCN(c8ccc9c(c8)n(C)c(=O)n9C8CCC(=O)NC8=O)C7)CC6)cc5)ccc4c23)C(=O)N1 (some centres unmarked) [Compound I-214]
> 75%	< 1 nM	> 75%	< 1 nM			Cc1nc(N2CCN(CC3CCN(c4ccc5c(c4)n(C)c(=O)n5C4CCC(=O)NC4=O)CC3)CC2)ccc1-c1ccc2c(ccc3sc4c(c32)NC[C@@H](C)NC4=O)n1 (some centres unmarked) [Compound I-283]
